Test [1] concerns the target T1, LK35.2-hPD-L1 cells / PE-labeled PD-1-Ig (Homo sapiens, UniProt Q9NZQ7).
T1 construct: expressed in transfected cells; host or cells: LK35.2 mouse B cell line
Nature of the test: LK35.2-hPD-L1 cell binding high-content screening assay. It is filed as cell-based. The essentials: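 Mouse LK35.2 B cells stably over-expressing human PD-L1, cultured overnight, treated with compound plus PE-labeled human PD-1-Ig (1 nM final) in RPMI/10% FCS for 1 h at 37 °C. After washing, bound fluorescence quantified by high-content imaging.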

The next test concerns the target T2, Human PD-L1/PD-1 (Homo sapiens, UniProt Q9NZQ7).
T2 construct: made in house; host or cells: HEK293T
Nature of the test: HTRF PD-1-Ig/PD-L1-His binding assay (human PD-L1). The essentials: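 HTRF read-out: Eu cryptate anti-Ig mAb 1 nM final, APC anti-His mAb 20 nM final, added over the binding reaction. Proteins were PD-1-Ig and PD-L1-His ectodomain fusions. Buffer was dPBS, 0.1% BSA, 0.05% Tween-20.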

[2] abbreviates: cell binding assay, cell line not given, cluster symbol, read-out: CBA IC50 cluster.
The mark [3] stands for this setting: cluster symbol, read-out: HTRF IC50 cluster.
Where [4] appears, read: cluster symbol, cell line of CBA not given (LK35.2-hPD-L1 or 293T-hPD-L1), read-out: CBA IC50 cluster.

pIC50: −log10 of the molar value. Where two headings read alike, the source gives them in different places. Positions of bridges follow the written chain, without caps; N, C: chain ends. Non-standard residues stand in square brackets, D forms with d. Residues, ends and D or L forms follow the SMILES beside them. ξ: configuration not given here. *: point of attachment. d(cisHyp) = O=C(O)[C@H]1C[C@@H](O)CN1; Bta = N[C@@H](Cc1csc2ccccc12)C(=O)O; Hyp = O=C(O)[C@@H]1C[C@@H](O)CN1; NMeF = CN[C@@H](Cc1ccccc1)C(=O)O; NMeNle = CCCC[C@H](NC)C(=O)O; NMeA = CN[C@@H](C)C(=O)O; Orn = NCCC[C@H](N)C(=O)O; Dab = NCC[C@H](N)C(=O)O; Dap = NC[C@H](N)C(=O)O; Bz = O=C(c1ccccc1)*; ξC = NC(CS)C(=O)O; Sar = CNCC(=O)O

T1 sequence (Q9NZQ7 19-290): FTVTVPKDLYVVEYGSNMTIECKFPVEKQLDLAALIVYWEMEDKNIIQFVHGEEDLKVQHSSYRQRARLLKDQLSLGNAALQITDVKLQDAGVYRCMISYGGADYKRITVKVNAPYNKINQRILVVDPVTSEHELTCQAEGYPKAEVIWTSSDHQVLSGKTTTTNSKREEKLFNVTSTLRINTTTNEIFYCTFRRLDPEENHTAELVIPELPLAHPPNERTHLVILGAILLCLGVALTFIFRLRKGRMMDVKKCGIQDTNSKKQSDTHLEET
T2 sequence (Q9NZQ7 with tags, fused parts or gaps): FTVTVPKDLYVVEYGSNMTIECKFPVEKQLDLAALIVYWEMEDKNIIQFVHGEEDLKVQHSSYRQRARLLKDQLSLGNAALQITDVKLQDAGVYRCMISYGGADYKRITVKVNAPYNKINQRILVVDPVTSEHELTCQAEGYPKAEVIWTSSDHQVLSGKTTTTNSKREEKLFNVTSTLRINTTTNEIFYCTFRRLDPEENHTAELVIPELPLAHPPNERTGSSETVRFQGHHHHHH

With `CCCC[C@H]1C(=O)N(C)[C@@H](C)C(=O)N[C@@H](CCCNC(=N)N)C(=O)NC(C(=O)NCC(N)=O)CSCC(=O)N[C@@H](Cc2ccc(O)cc2)C(=O)N(C)[C@@H](C)C(=O)N[C@@H](CC(N)=O)C(=O)N2CCC[C@H]2C(=O)N[C@@H](Cc2cnc[nH]2)C(=O)N[C@@H](CC(C)C)C(=O)N2C[C@H](O)C[C@H]2C(=O)N[C@@H](Cc2c[nH]c3ccccc23)C(=O)N[C@@H](CO)C(=O)N[C@@H](Cc2c[nH]c3ccccc23)C(=O)N1C` (some centres unmarked) [Example 9055], the pIC50 in test [1] (setting [2]) was 8.33 to 9.80; at Human PD-L1/PD-1 (setting [3]), 8.17 to 9.41.
In the case of `CCCC[C@H]1C(=O)N(C)CC(=O)N[C@@H](CC(=O)O)C(=O)N[C@@H]([C@@H](C)CC)C(=O)N(C)[C@@H](Cc2ccccc2)C(=O)N[C@@H](Cc2ccc(O)cc2)C(=O)N(C)CC(=O)N[C@@H](Cc2c[nH]c3ccccc23)C(=O)N[C@@H](Cc2ccc(O)cc2)C(=O)N[C@@H](CC(C)C)C(=O)N[C@H](C(=O)NCC(N)=O)CSCC(=O)N[C@@H](Cc2ccccc2)C(=O)N(C)[C@@H](Cc2ccccc2)C(=O)N1C` [Example 3149] (HELM PEPTIDE1{[O=C(C[*:3])[*:2]].F.[meF].[CCCC[C@@H](C(=O)[*:2])N(C)[*:1]].[Sar].D.I.[meF].Y.[Sar].W.Y.L.C.G.[am]}$PEPTIDE1,PEPTIDE1,1:R3-14:R3$$$V2.0), the pIC50 in test [1] (cell line of CBA not given (LK35.2-hPD-L1 or 293T-hPD-L1), read-out: CBA IC50 value) is 8.05; on Human PD-L1/PD-1 (read-out: HTRF IC50 value) it was 7.52.
On to `CCCC[C@H]1C(=O)N2C[C@H](O)C[C@@H]2C(=O)N[C@@H](CC(=O)O)C(=O)N[C@@H](C(C)C)C(=O)N(C)[C@@H](Cc2ccccc2)C(=O)N[C@@H](Cc2ccc(O)cc2)C(=O)N(C)CC(=O)N[C@@H](Cc2c[nH]c3ccccc23)C(=O)N[C@@H](Cc2ccc(O)cc2)C(=O)N[C@@H](CC(C)C)C(=O)N[C@H](C(=O)NCC(N)=O)CSCC(=O)N[C@@H](Cc2ccccc2)C(=O)N(C)[C@@H](Cc2ccccc2)C(=O)N1C` [Example 3575] ({CH2CO}-F[NMeF][NMeNle][d(cisHyp)]DV[NMeF]Y[Sar]WYLCG-NH2; thioether N-13), for which the figures for the pIC50 (in test [1] (setting [2]); at Human PD-L1/PD-1 (setting [3])) were 8.33 to 9.80 and 8.17 to 9.41, respectively.
Taken in the same sequence, the figures for `CCCC[C@H]1C(=O)N(C)CC(=O)N[C@@H](CC(=O)O)C(=O)N[C@@H](C(C)C)C(=O)N(C)[C@@H](Cc2ccccc2)C(=O)N[C@@H](CCCNC(=N)N)C(=O)N(C)CC(=O)N[C@@H](Cc2c[nH]c3ccccc23)C(=O)N[C@@H](Cc2ccc(O)cc2)C(=O)N[C@@H](CCC(=O)O)C(=O)N[C@H](C(=O)NCC(N)=O)CSCC(=O)N[C@@H](Cc2ccccc2)C(=O)N(C)[C@@H](Cc2ccccc2)C(=O)N1C` [Example 3542] (HELM PEPTIDE1{[O=C(C[*:3])[*:2]].F.[meF].[CCCC[C@@H](C(=O)[*:2])N(C)[*:1]].[Sar].D.V.[meF].R.[Sar].W.Y.E.C.G.[am]}$PEPTIDE1,PEPTIDE1,1:R3-14:R3$$$V2.0) were 7.14 to 8.32 and 7.52 to 8.17.
Turning to `CCCC[C@H]1C(=O)N(C)[C@@H](CCCC)C(=O)N[C@@H](C)C(=O)N[C@H](C(N)=O)CSCC(=O)N[C@@H](Cc2ccc(O)cc2)C(=O)N(C)[C@@H](C)C(=O)N[C@@H](CCC(=O)O)C(=O)N2CCC[C@H]2C(=O)N[C@@H](CN)C(=O)N[C@@H](CC(C)C)C(=O)N2C[C@H](O)C[C@H]2C(=O)N[C@@H](Cc2c[nH]c3ccccc23)C(=O)N[C@@H](CO)C(=O)N[C@@H](Cc2c[nH]c3ccccc23)C(=O)N1C` [Example 1172] ({CH2CO}-Y[NMeA]EP[Dap]L[Hyp]WSW[NMeNle][NMeNle]AC-NH2; thioether N-14), the pIC50 is 7.14 to 8.32 in test [1] (setting [4]) and 8.17 to 9.41 at Human PD-L1/PD-1 (setting [3]).
For `CCCC[C@H]1C(=O)N(C)[C@@H](CCCC)C(=O)N[C@@H](CCCNC(=N)N)C(=O)N[C@H](C(=O)NCC(N)=O)CSCC(=O)N[C@@H](Cc2ccc(O)cc2)C(=O)N(C)[C@@H](C)C(=O)N[C@@H](CC(=O)O)C(=O)N2CCC[C@H]2C(=O)N[C@@H](Cc2cnc[nH]2)C(=O)N[C@@H](CC(C)C)C(=O)N2C[C@H](O)C[C@H]2C(=O)N[C@@H](Cc2c[nH]c3ccccc23)C(=O)N[C@@H](CO)C(=O)N[C@@H](Cc2c[nH]c3ccccc23)C(=O)N1C` [Example 1166] ({CH2CO}-Y[NMeA]DPHL[Hyp]WSW[NMeNle][NMeNle]RCG-NH2; thioether N-14), the pIC50 in test [1] (setting [4]) is 8.33 to 9.80; at Human PD-L1/PD-1 (setting [3]), 8.17 to 9.41.
As for `CCCC[C@H]1C(=O)N(C)[C@@H](CCCC)C(=O)N[C@@H](CCC(=O)O)C(=O)N[C@H](C(=O)NCC(N)=O)CSCC(=O)N[C@@H](Cc2ccc(O)cc2)C(=O)N(C)[C@@H](C)C(=O)N[C@@H](CCN)C(=O)N2CCC[C@H]2C(=O)N[C@@H](Cc2c[nH]cn2)C(=O)N[C@@H](CCC(=O)O)C(=O)N2C[C@H](O)C[C@H]2C(=O)N[C@@H](Cc2c[nH]c3ccccc23)C(=O)N[C@@H](CCCCN)C(=O)N[C@@H](Cc2c[nH]c3ccccc23)C(=O)N1C` [Example 5112] ({CH2CO}-Y[NMeA][Dab]PHE[Hyp]WKW[NMeNle][NMeNle]ECG-NH2; thioether N-14), the values for the pIC50 (in test [1] (setting [2]); at Human PD-L1/PD-1 (setting [3])) were 8.33 to 9.80 and 8.17 to 9.41, respectively.
As for `CC(C)C[C@@H]1NC(=O)[C@H](Cc2ccc(O)cc2)NC(=O)[C@H](Cc2c[nH]c3ccccc23)NC(=O)CN(C)C(=O)[C@H](Cc2ccc(O)cc2)NC(=O)[C@H](Cc2ccccc2)N(C)C(=O)[C@H](C(C)C)NC(=O)[C@H](CC(=O)O)NC(=O)CN(C)C(=O)[C@H](CCC(=O)O)N(C)C(=O)[C@H](Cc2ccccc2)N(C)C(=O)[C@H](Cc2ccccc2)NC(=O)CSC[C@@H](C(=O)NCC(N)=O)NC1=O` [Example 3061] (HELM PEPTIDE1{[O=C(C[*:3])[*:2]].F.[meF].[meE].[Sar].D.V.[meF].Y.[Sar].W.Y.L.C.G.[am]}$PEPTIDE1,PEPTIDE1,1:R3-14:R3$$$V2.0), the pIC50 in test [1] (setting [4]) is below 7.13; at Human PD-L1/PD-1 (setting [3]) it was 7.52 to 8.17.
As for `CCCC[C@H]1C(=O)N(C)[C@@H](CCCC)C(=O)N[C@@H](CCCNC(=N)N)C(=O)N[C@H](C(=O)NCC(N)=O)CSCC(=O)N[C@@H](Cc2ccccc2)C(=O)N(C)[C@@H](C)C(=O)N[C@@H](CC(N)=O)C(=O)N2CCC[C@H]2C(=O)N[C@@H](Cc2c[nH]cn2)C(=O)N[C@@H](CC(C)C)C(=O)N[C@@H](CCNC(=O)c2ccccc2)C(=O)N[C@@H](Cc2c[nH]c3ccccc23)C(=O)N[C@@H](CO)C(=O)N[C@@H](Cc2c[nH]c3ccccc23)C(=O)N1C` [Example 1022] ({CH2CO}-F[NMeA]NPHL[Dab](Bz)WSW[NMeNle][NMeNle]RCG-NH2; thioether N-14), the pIC50 in test [1] (CBA IC50 cluster, cluster symbol, cell line of CBA not given (LK35.2-hPD-L1 or 293T-hPD-L1)) was below 7.13; on Human PD-L1/PD-1 (HTRF IC50 cluster, cluster symbol), below 7.52.
For `CCCC[C@H]1C(=O)N(C)[C@@H](CCCC)C(=O)N[C@@H](CCCNC(=N)N)C(=O)N[C@H](C(=O)NCC(N)=O)CSCC(=O)N[C@@H](Cc2ccc(O)cc2)C(=O)N2CCC[C@@H]2C(=O)N[C@@H](CC(N)=O)C(=O)N2CCC[C@H]2C(=O)N[C@@H](Cc2cnc[nH]2)C(=O)N[C@@H](CC(C)C)C(=O)N2CCC[C@H]2C(=O)N[C@@H](Cc2c[nH]c3ccccc23)C(=O)N[C@@H](CO)C(=O)N[C@@H](Cc2c[nH]c3ccccc23)C(=O)N1C` [Example 1137] ({CH2CO}-Y[dP]NPHLPWSW[NMeNle][NMeNle]RCG-NH2; thioether N-14), the pIC50 was below 7.13 in test [1] (setting [4]) and below 7.52 on Human PD-L1/PD-1 (setting [3]).
For the compound `CCCC[C@H]1C(=O)N(C)[C@@H](CCCC)C(=O)N[C@@H](CCCNC(=N)N)C(=O)N[C@H](C(=O)NCC(N)=O)CSCC(=O)N[C@@H](Cc2ccc(O)cc2)C(=O)N(C)[C@@H](C)C(=O)N[C@@H](CCCN)C(=O)N2CCC[C@H]2C(=O)N[C@@H](Cc2c[nH]cn2)C(=O)N[C@@H](CC(=O)O)C(=O)N2C[C@H](O)C[C@H]2C(=O)N[C@@H](Cc2c[nH]c3ccccc23)C(=O)N[C@@H](CO)C(=O)N[C@@H](Cc2c[nH]c3ccccc23)C(=O)N1C` [Example 5105] ({CH2CO}-Y[NMeA][Orn]PHD[Hyp]WSW[NMeNle][NMeNle]RCG-NH2; thioether N-14), the pIC50 in test [1] (setting [2]) was 7.14 to 8.32; on Human PD-L1/PD-1 (setting [3]), 7.52 to 8.17.
For `CCCC[C@H]1C(=O)N[C@@H](CCCNC(=N)N)C(=O)NC(C(=O)NCC(N)=O)CSCC(=O)N[C@@H](Cc2ccc(O)cc2)C(=O)N(C)[C@@H](C)C(=O)N[C@@H](CC(N)=O)C(=O)N2CCC[C@H]2C(=O)N[C@@H](Cc2cnc[nH]2)C(=O)N[C@@H](CC(C)C)C(=O)N2C[C@H](O)C[C@H]2C(=O)N[C@@H](Cc2c[nH]c3ccccc23)C(=O)N[C@@H](CO)C(=O)N[C@@H](Cc2csc3ccccc23)C(=O)N(C)[C@@H](C)C(=O)N1C` (some centres unmarked) [Example 9056] ({CH2CO}-Y[NMeA]NPHL[Hyp]WS[Bta][NMeA][NMeNle]R[ξC]G-NH2; thioether N-14) the same measures were 8.33 to 9.80 and 8.17 to 9.41.
Consider `CCCC[C@H]1C(=O)N(C)[C@@H](CCCC)C(=O)N[C@@H](CCCNC(=N)N)C(=O)N[C@@H](C(=O)NCC(N)=O)CSCC(=O)N[C@@H](Cc2cnc[nH]2)C(=O)N(C)[C@@H](C)C(=O)N[C@@H](CC(N)=O)C(=O)N2CCC[C@H]2C(=O)N[C@@H](Cc2cnc[nH]2)C(=O)N[C@@H](CC(C)C)C(=O)N(C)CC(=O)N[C@@H](Cc2c[nH]c3ccccc23)C(=O)N[C@@H](CO)C(=O)N[C@@H](Cc2c[nH]c3ccccc23)C(=O)N1C` [Example 1072] ({CH2CO}-H[NMeA]NPHL[Sar]WSW[NMeNle][NMeNle]R[dC]G-NH2; thioether N-14), for which the results for the pIC50 (in test [1] (setting [4]); at Human PD-L1/PD-1 (setting [3])) were below 7.13 and below 7.52, respectively.

The pIC50 is −log10 of the IC50, conventionally taken in molar units.
